In patent US11534412B2, “Application of totarol and pharmaceutical composition containing totarol” (Emergopharm SP. Z O.O. SP.K., priority 2017, dated 2022):

System: Streptococcus agalactiae - clinical strain
Experiment: Determination of the MIC value of totarol, broth dilution in 96-well plates with OD and quantitative culture
Assay type: cell-based
Conditions: for OD, average of 3 measurements / OD: 620 nm
Procedure: Test of antibacterial activity of totarol using DMI (dimethylisosorbide) as a solvent.
1 ml of the suspension was collected to 9 ml of a TSB broth ([…]). Suspensions with a dilution of 10^−6 were prepared in the described way. A suspension with a cell density of 10^5 cfu/ml was selected for further investigations. For each strain, 2 96-well plates were prepared: the first one was intended for the OD measurement, the second one—for quantitative culture on solid media. • A/ to wells B1-D1, B2-D2 and B-D 4-11, 100 µl of the broth were added; • B/ to wells B3-D3, 200 µl of the broth were added; • C/ to wells B1-D1, 1 µl of stock I was added; • D/ to wells B2-D2, 1 µl of stock II was added; • E/ to wells B3-D3, 2 µl of stock III were added. Using a multichannel pipette, 100 µl of the sample were collected from each of the B3-D3 wells and placed in wells B4-D4 (mixing by sucking the content in and letting it out for 5 times). The pipette tips were replaced and 100 µl of the content were collected from of the B4-D4 wells, and placed in wells B5-D5, mixing as previously. These operations were repeated through the wells B11-D11. The content in the B11-D11 wells was mixed, and 100 µl of the fluid were collected and discarded. This way, a series of dilutions of totarol samples in DMI in the range of 0.32% to 0.0004% was obtained. Then, 100 µl of a corresponding bacterial culture were added to the wells B, C, D 1-11. In consequence, a change in the final concentration range occurred, to 0.16%-0.0002%. Control Preparation: • Negative control: 100 µl of the broth+1 pl DMI were added to the Al well. • Positive control (I): 100 µl of the broth with the bacterial culture were added to the wells E1-G1. • Diluent positive control (II): 100 µl of the broth with the bacterial culture+1 pl DMI were added to the wells E2-G2. The OD value in the individual wells was read at the wavelength of 620 nm (read time 0). From the second 96-well plate, a culture was inoculated by a quantitative method from every dilution onto a well with a proper solid medium, and incubated for 24 h at 37° C. under aerobic or anaerobic conditions, depending on the strain. The plates were incubated under aerobic conditions or in an atmosphere of an elevated CO2 concentration (for the strains requiring it) in an incubator at 37° C. The OD was read after 8 h, 16 h, and 24 h, respectively. Before every OD measurement, the contents of the wells were mixed delicately. In parallel to the OD readout, cultures we inoculated from the second 96-well plate, from every dilution, into plates with a proper solid medium, and incubated for 24 h at 37° C., under aerobic or anaerobic conditions. For the analysis of the experimental results, an average value of the OD measurement obtained from three repetitions in the individual times (0, 8, 16, and 24 h) for the individual microbes (Gardnerella vaginalis, Streptococcus agalactiae, Enterococcus faecalis, Lactobacillus gasseri/plantarum) was taken. Additionally, the number of bacteria grown on solid media was taken into account. The results of the tests confirm the specific, concentration-dependent selectiveness, and the high antibacterial effectiveness of totarol against the pathogenic microorganisms: Gardnerella vaginalis, Streptococcus agalactiae, Enterococcus faecalis at low MIC values safe for bacteria of the Lactobacillus genus.

MIC value (S. agalactiae): 0.0013%
SMILES: CC(C)c1c(O)ccc2c1CC[C@H]1C(C)(C)CCC[C@]21C [Totarol, totarol]
Viable bacterial count by quantitative culture (cfu/ml) (totarol 0.0002%, 0 h): 3.4 × 10^5 cfu/ml
OD, average of 3 measurements (totarol 0.0002%, 0 h): 0.289
Viable bacterial count by quantitative culture (cfu/ml) (totarol 0.0002%, 8 h): 4 × 10^6 cfu/ml
OD, average of 3 measurements (totarol 0.0002%, 8 h): 0.314
Viable bacterial count by quantitative culture (cfu/ml) (totarol 0.0002%, 16 h): 1.1 × 10^6 cfu/ml
OD, average of 3 measurements (totarol 0.0002%, 16 h): 0.498
Viable bacterial count by quantitative culture (cfu/ml) (totarol 0.0002%, 24 h): 1 × 10^7 cfu/ml
OD (totarol 0.0002%, 24 h): 0.682
Viable bacterial count by quantitative culture (cfu/ml) (totarol 0.0004%, 0 h): 6 × 10^5 cfu/ml
OD, average of 3 measurements (totarol 0.0004%, 0 h): 0.305
Viable bacterial count by quantitative culture (cfu/ml) (totarol 0.0004%, 8 h): 6 × 10^6 cfu/ml
OD, average of 3 measurements (totarol 0.0004%, 8 h): 0.318
Viable bacterial count by quantitative culture (cfu/ml) (totarol 0.0004%, 16 h): 9.1 × 10^5 cfu/ml
OD, average of 3 measurements (totarol 0.0004%, 16 h): 0.493
Viable bacterial count by quantitative culture (cfu/ml) (totarol 0.0004%, 24 h): 2 × 10^7 cfu/ml
OD (totarol 0.0004%, 24 h): 0.668
Viable bacterial count by quantitative culture (cfu/ml) (totarol 0.0007%, 0 h): 4.5 × 10^5 cfu/ml
OD, average of 3 measurements (totarol 0.0007%, 0 h): 0.297
Inoculation cfu/ml (totarol 0.0007%, 8 h): 6 × 10^4 cfu/ml
OD, average of 3 measurements (totarol 0.0007%, 8 h): 0.319
Viable bacterial count by quantitative culture (cfu/ml) (totarol 0.0007%, 16 h): 3.5 × 10^6 cfu/ml
OD, average of 3 measurements (totarol 0.0007%, 16 h): 0.630
Viable bacterial count by quantitative culture (cfu/ml) (totarol 0.0007%, 24 h): 6 × 10^7 cfu/ml
OD (totarol 0.0007%, 24 h): 0.941
Viable bacterial count by quantitative culture (cfu/ml) (totarol 0.0013%, 0 h): 3.3 × 10^5 cfu/ml
OD, average of 3 measurements (totarol 0.0013%, 0 h): 0.299
Viable bacterial count by quantitative culture (cfu/ml) (totarol 0.0013%, 8 h): 0 cfu/ml
OD, average of 3 measurements (totarol 0.0013%, 8 h): 0.302
Viable bacterial count by quantitative culture (cfu/ml) (totarol 0.0013%, 16 h): 0 cfu/ml
OD, average of 3 measurements (totarol 0.0013%, 16 h): 0.302
Viable bacterial count by quantitative culture (cfu/ml) (totarol 0.0013%, 24 h): 0 cfu/ml
OD (totarol 0.0013%, 24 h): 0.302
Viable bacterial count by quantitative culture (cfu/ml) (totarol 0.0025%, 0 h): 2.6 × 10^5 cfu/ml
OD, average of 3 measurements (totarol 0.0025%, 0 h): 0.289
Viable bacterial count by quantitative culture (cfu/ml) (totarol 0.0025%, 8 h): 0 cfu/ml
OD, average of 3 measurements (totarol 0.0025%, 8 h): 0.290
Viable bacterial count by quantitative culture (cfu/ml) (totarol 0.0025%, 16 h): 0 cfu/ml
OD, average of 3 measurements (totarol 0.0025%, 16 h): 0.291
Viable bacterial count by quantitative culture (cfu/ml) (totarol 0.0025%, 24 h): 0 cfu/ml
OD (totarol 0.0025%, 24 h): 0.291
Viable bacterial count by quantitative culture (cfu/ml) (totarol 0.005%, 0 h): 1.5 × 10^5 cfu/ml
OD, average of 3 measurements (totarol 0.005%, 0 h): 0.288
Viable bacterial count by quantitative culture (cfu/ml) (totarol 0.005%, 8 h): 0 cfu/ml
OD, average of 3 measurements (totarol 0.005%, 8 h): 0.292
Viable bacterial count by quantitative culture (cfu/ml) (totarol 0.005%, 16 h): 0 cfu/ml
OD, average of 3 measurements (totarol 0.005%, 16 h): 0.296
Viable bacterial count by quantitative culture (cfu/ml) (totarol 0.005%, 24 h): 0 cfu/ml
OD (totarol 0.005%, 24 h): 0.300
Viable bacterial count by quantitative culture (cfu/ml) (totarol 0.01%, 0 h): 10^5 cfu/ml
OD, average of 3 measurements (totarol 0.01%, 0 h): 0.297
Viable bacterial count by quantitative culture (cfu/ml) (totarol 0.01%, 8 h): 0 cfu/ml
OD, average of 3 measurements (totarol 0.01%, 8 h): 0.295
Viable bacterial count by quantitative culture (cfu/ml) (totarol 0.01%, 16 h): 0 cfu/ml
OD, average of 3 measurements (totarol 0.01%, 16 h): 0.301
Viable bacterial count by quantitative culture (cfu/ml) (totarol 0.01%, 24 h): 0 cfu/ml
OD (totarol 0.01%, 24 h): 0.307
Viable bacterial count by quantitative culture (cfu/ml) (totarol 0.02%, 0 h): 10^5 cfu/ml
OD, average of 3 measurements (totarol 0.02%, 0 h): 0.318
Viable bacterial count by quantitative culture (cfu/ml) (totarol 0.02%, 8 h): 0 cfu/ml
OD, average of 3 measurements (totarol 0.02%, 8 h): 0.323
Viable bacterial count by quantitative culture (cfu/ml) (totarol 0.02%, 16 h): 0 cfu/ml
OD, average of 3 measurements (totarol 0.02%, 16 h): 0.324
Viable bacterial count by quantitative culture (cfu/ml) (totarol 0.02%, 24 h): 0 cfu/ml
OD (totarol 0.02%, 24 h): 0.324
Viable bacterial count by quantitative culture (cfu/ml) (totarol 0.04%, 0 h): 3 × 10^5 cfu/ml
OD, average of 3 measurements (totarol 0.04%, 0 h): 0.406
Viable bacterial count by quantitative culture (cfu/ml) (totarol 0.04%, 8 h): 0 cfu/ml
OD, average of 3 measurements (totarol 0.04%, 8 h): 0.535
Viable bacterial count by quantitative culture (cfu/ml) (totarol 0.04%, 16 h): 0 cfu/ml
OD, average of 3 measurements (totarol 0.04%, 16 h): 0.489
Viable bacterial count by quantitative culture (cfu/ml) (totarol 0.04%, 24 h): 0 cfu/ml
OD (totarol 0.04%, 24 h): 0.405
Viable bacterial count by quantitative culture (cfu/ml) (totarol 0.08%, 0 h): 5 × 10^5 cfu/ml
OD, average of 3 measurements (totarol 0.08%, 0 h): 0.563
Viable bacterial count by quantitative culture (cfu/ml) (totarol 0.08%, 8 h): 0 cfu/ml
OD, average of 3 measurements (totarol 0.08%, 8 h): 0.564
Viable bacterial count by quantitative culture (cfu/ml) (totarol 0.08%, 16 h): 0 cfu/ml
OD, average of 3 measurements (totarol 0.08%, 16 h): 0.540
Viable bacterial count by quantitative culture (cfu/ml) (totarol 0.08%, 24 h): 0 cfu/ml
OD (totarol 0.08%, 24 h): 0.430
Viable bacterial count by quantitative culture (cfu/ml) (totarol 0.16%, 0 h): 2 × 10^5 cfu/ml
OD, average of 3 measurements (totarol 0.16%, 0 h): 0.512
Viable bacterial count by quantitative culture (cfu/ml) (totarol 0.16%, 8 h): 0 cfu/ml
OD, average of 3 measurements (totarol 0.16%, 8 h): 0.605
Viable bacterial count by quantitative culture (cfu/ml) (totarol 0.16%, 16 h): 0 cfu/ml
OD, average of 3 measurements (totarol 0.16%, 16 h): 0.569
Viable bacterial count by quantitative culture (cfu/ml) (totarol 0.16%, 24 h): 0 cfu/ml
OD (totarol 0.16%, 24 h): 0.615
